Measured values as given in patent publication US6932975B2, “Cosmetic composition comprising a phosphoric triester and a skin activating component” (Kao Corporation, priority 1997, dated 2005).

System: horny layer of the lower inner arm
Assay: Retention of moisturizing effect: water content in the horny layer by impedance meter (Example 2)
Type: in vivo, human
Conditions: 20° C., humidity 30%, average N=10; for Retention of moisturizing effect (water content in the horny layer), After 3 hr.: after additional 3 hours, washed with hot water again; for Retention of moisturizing effect (water content in the horny layer), After 15 min.: applied 1 hour, washed off with hot water, 15 minutes after
Description: Cosmetics of their corresponding formulations shown in Table 7 were prepared to determine the retention of their moisturizing effects.
A fixed amount of each of the above samples was applied to the lower inner arm of a volunteer and washed off with hot water after left at rest for 1 hour. The volunteer was got to enter an air-conditioned room kept at a temperature of 20° C. and a humidity of 30%. Fifteen minutes after that, the water content in the horny layer of the volunteer was measured by an impedance meter (manufactured by IBS Company). After additional 3 hours, the treated arm was washed with hot water again. Fifty minutes after that, the water content was measured in the same manner as described above. The values shown in the table were average values (N=10).

For `CCCCOCCOP(=O)(OCCOCCCC)OCCOCCCC` [Comparative product 9, Tris(butoxyethyl) phosphate], the “Retention of moisturizing effect (water content in the horny layer), After 3 hr.” value (“Retention of moisturizing effect … After 3 hr.” below) was 40 μΩ^−1 and the “Retention of moisturizing effect (water content in the horny layer), After 15 min.” value (shortened to “Retention of moisturizing effect … After 15 min.”) was 70 μΩ^−1.

`OCC(O)CO` [Comparative product 11, Glycerol] was tested, and the “Retention of moisturizing effect … After 3 hr.” value was 45 μΩ^−1 and the “Retention of moisturizing effect … After 15 min.” value was 75 μΩ^−1.

`O` [Comparative product 12, Purified water] was tested, and the “Retention of moisturizing effect … After 3 hr.” value was 40 μΩ^−1 and the “Retention of moisturizing effect … After 15 min.” value was 60 μΩ^−1.

In the case of “Bis(butoxyethoxyethyl)ethyl phosphate [Comparative product 8]”, the “Retention of moisturizing effect … After 3 hr.” value was 40 μΩ^−1 and the “Retention of moisturizing effect … After 15 min.” value was 70 μΩ^−1.
